Source: patent US10858364B2, “Imidazopyrazine inhibitors of Bruton's tyrosine kinase” (Acerta Pharma B.V., priority 2016, dated 2020)

Key:
[1] = Clinical pharmacokinetics of acalabrutinib and its major metabolite; format: in vivo, human
Text: The compound of Formula (I) was identified as the major metabolite in plasma with a geometric mean exposure (AUC) approximately 2- to 3-fold higher than the exposure of acalabrutinib.
Acalabrutinib and the major metabolite form a covalent bond with a cysteine residue in the BTK active site, leading to inhibition of BTK enzymatic activity. Acalabrutinib binding with the cysteine residue occurs rapidly and irreversibly and provides high target occupancy at steady state.

CYP2D6 = CYP2D6 (Homo sapiens (Human), UniProt P10635); test: CYP inhibition, CYP2D6; format: in vitro ADME
Chain of CYP2D6 (P10635 whole entry): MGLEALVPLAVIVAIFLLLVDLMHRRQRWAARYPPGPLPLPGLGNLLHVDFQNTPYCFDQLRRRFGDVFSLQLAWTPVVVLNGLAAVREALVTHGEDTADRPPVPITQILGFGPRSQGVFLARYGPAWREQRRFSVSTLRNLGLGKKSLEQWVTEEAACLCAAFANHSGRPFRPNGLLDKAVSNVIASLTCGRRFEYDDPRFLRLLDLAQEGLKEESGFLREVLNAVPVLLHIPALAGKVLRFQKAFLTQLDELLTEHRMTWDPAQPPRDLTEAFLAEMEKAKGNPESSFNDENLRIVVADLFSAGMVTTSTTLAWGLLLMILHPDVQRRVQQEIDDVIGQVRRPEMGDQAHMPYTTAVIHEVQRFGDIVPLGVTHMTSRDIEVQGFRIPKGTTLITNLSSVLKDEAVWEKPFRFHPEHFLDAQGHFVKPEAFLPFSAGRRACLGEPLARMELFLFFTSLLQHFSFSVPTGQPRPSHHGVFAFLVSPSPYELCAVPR

CYP2B6 [2] = test: CYP induction, CYP2B6; format: in vitro ADME
CYP2C8 = CYP2C8 (Homo sapiens (Human), UniProt P10632); test: CYP inhibition, CYP2C8; format: in vitro ADME
Chain of CYP2C8 (P10632 whole entry): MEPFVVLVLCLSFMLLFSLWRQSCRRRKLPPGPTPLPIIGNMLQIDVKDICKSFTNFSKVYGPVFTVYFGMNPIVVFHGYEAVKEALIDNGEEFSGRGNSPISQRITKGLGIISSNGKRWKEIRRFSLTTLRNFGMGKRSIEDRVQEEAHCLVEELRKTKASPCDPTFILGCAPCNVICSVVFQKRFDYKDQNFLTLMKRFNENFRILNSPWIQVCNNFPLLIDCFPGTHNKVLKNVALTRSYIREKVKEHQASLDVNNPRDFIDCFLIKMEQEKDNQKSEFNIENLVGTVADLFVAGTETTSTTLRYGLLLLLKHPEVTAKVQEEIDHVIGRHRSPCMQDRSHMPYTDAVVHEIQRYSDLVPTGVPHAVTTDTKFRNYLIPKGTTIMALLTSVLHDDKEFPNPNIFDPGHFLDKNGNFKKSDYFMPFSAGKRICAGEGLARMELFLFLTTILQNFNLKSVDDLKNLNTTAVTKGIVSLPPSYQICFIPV

CYP3A enzymes = test: In vitro metabolism studies; format: in vitro ADME
CYP3A4 = test: CYP induction, CYP3A4; format: in vitro ADME
CYP2C19 = CYP2C19 (Homo sapiens (Human), UniProt P33261); test: CYP inhibition, CYP2C19; format: in vitro ADME
Chain of CYP2C19 (P33261 whole entry): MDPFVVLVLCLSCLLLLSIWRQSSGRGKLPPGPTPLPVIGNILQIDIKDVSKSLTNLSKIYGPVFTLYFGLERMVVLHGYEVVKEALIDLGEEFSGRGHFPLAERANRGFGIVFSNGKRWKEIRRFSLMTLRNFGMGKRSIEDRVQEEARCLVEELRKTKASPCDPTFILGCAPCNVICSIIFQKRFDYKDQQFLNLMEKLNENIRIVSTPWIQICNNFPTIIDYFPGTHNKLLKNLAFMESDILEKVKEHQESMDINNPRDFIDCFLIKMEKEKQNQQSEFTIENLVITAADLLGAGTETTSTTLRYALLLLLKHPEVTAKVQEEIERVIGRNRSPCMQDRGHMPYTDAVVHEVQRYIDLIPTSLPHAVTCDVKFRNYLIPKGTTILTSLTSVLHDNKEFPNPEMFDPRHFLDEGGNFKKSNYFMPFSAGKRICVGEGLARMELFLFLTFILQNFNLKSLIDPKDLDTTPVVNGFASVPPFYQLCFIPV

CYP2B6 [3] = target: CYP2B6 (Homo sapiens (Human), UniProt P20813); test: CYP inhibition, CYP2B6; format: in vitro ADME
Chain of CYP2B6 (Homo sapiens (Human), UniProt P20813) (P20813 whole entry): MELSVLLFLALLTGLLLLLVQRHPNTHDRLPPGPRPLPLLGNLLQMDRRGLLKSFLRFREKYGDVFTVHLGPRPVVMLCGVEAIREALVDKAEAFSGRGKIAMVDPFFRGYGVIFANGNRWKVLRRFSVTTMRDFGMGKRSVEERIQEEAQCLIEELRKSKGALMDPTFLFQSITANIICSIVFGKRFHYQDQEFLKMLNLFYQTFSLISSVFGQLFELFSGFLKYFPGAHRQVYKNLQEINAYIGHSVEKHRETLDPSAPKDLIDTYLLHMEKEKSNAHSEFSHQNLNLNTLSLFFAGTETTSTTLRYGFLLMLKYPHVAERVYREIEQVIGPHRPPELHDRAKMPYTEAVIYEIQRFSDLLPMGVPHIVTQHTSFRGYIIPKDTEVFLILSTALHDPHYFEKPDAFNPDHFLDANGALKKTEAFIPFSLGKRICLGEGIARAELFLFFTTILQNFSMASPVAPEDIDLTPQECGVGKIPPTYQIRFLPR

CYP2C9 = CYP2C9 (Homo sapiens (Human), UniProt P11712); test: CYP inhibition, CYP2C9; format: in vitro ADME
Chain of CYP2C9 (P11712 whole entry): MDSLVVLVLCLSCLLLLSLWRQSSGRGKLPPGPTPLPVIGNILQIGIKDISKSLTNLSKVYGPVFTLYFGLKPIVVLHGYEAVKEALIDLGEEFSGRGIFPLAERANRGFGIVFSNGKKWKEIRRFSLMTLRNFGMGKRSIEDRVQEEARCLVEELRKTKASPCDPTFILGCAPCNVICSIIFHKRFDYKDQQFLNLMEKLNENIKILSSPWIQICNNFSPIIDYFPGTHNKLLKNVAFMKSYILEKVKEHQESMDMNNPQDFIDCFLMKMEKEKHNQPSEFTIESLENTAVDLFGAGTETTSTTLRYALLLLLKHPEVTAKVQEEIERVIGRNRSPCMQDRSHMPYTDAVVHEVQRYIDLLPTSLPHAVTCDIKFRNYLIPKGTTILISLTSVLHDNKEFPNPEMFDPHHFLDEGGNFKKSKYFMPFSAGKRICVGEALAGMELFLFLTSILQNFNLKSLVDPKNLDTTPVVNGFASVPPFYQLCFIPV

CYP3A4/5 = test: CYP inhibition, CYP3A4/5; format: in vitro ADME
CYP1A2 [4] = test: CYP induction, CYP1A2; format: in vitro ADME
CYP1A2 [5] = target: CYP1A2 (Homo sapiens (Human), UniProt P05177)
Chain of CYP1A2 (Homo sapiens (Human), UniProt P05177) (P05177 whole entry): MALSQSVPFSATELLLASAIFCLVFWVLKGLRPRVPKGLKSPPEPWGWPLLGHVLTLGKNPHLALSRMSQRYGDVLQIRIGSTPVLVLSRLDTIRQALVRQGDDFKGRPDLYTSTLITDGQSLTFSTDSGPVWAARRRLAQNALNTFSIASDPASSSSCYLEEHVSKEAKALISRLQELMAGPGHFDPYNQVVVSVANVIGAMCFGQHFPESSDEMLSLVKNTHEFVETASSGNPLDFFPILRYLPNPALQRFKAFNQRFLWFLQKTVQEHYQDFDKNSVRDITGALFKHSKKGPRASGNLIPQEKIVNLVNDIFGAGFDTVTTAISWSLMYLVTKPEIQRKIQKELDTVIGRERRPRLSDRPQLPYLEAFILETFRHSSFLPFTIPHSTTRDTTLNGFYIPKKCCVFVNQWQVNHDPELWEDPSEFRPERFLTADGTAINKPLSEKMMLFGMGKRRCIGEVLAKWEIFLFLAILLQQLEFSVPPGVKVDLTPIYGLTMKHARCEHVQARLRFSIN

half-life ([1]; human, in vivo, single oral dose of 100 mg acalabrutinib, read-out: median terminal elimination half-life (t½) (converted)): 54 min
mean apparent oral clearance (CL/F) ([1]; population pharmacokinetics analysis): 159 L/h
CYP2D6 inhibition (CYP2D6): does not inhibit
CYP2B6 induction (CYP2B6 [2]): weak inducer
CYP2C8 inhibition (CYP2C8): weak inhibitor
CYP3A4 induction (CYP3A4): weak inducer
CYP2C19 inhibition (CYP2C19): does not inhibit
CYP2B6 inhibition (CYP2B6 [3]): does not inhibit
CYP2C9 inhibition (CYP2C9): weak inhibitor
CYP3A4/5 inhibition (CYP3A4/5): weak inhibitor
CYP1A2 induction (CYP1A2 [4]): weak inducer
CYP1A2 inhibition (CYP1A2 [5]): does not inhibit
Structure (SMILES): CC#CC(=O)N1CCC[C@H]1c1nc(-c2ccc(C(=O)Nc3ccccn3)cc2)c2c(N)nccn12 [acalabrutinib, reference compound]
metabolic route (CYP3A enzymes): predominantly metabolized by CYP3A enzymes
